19 compounds from EP2647628A1, “Substituted tricyclic compounds with activity towards ep1 receptors” (Almirall, S.A., priority 2012, dated 2013) can be followed below.

The assay addresses T1, human EP1 receptor (Homo sapiens, UniProt P34995).
T1 construct: expressed in transfected cells; host or cells: HEK-293 cell membranes
T1 sequence (P34995 1-402): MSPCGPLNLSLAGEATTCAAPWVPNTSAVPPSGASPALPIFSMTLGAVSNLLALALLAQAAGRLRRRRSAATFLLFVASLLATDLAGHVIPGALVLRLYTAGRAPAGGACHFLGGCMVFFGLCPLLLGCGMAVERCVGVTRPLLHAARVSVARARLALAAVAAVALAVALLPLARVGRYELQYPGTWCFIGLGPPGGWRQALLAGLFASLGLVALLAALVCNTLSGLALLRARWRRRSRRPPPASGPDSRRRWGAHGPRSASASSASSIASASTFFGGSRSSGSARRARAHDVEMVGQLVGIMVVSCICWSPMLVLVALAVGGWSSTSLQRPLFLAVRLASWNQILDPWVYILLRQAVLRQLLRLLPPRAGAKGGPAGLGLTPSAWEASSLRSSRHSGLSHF
Briefly: Human EP1 receptor radioligand binding assay. The note with it: [3H]-PGE2 (10 nM), transfected HEK-293 cell membranes, pH 6.0, 25 °C, 60 minutes; Ki by Cheng-Prusoff equation. On the procedure: To investigate binding properties of EP1 receptor ligands to human EP1 receptor, transfected HEK-293 cell membranes and [3H]-PGE2 (Perkin Elmer) were used. In 96-well plates the assay was carried out with a total reaction volume of 250 µl, containing 25 µl of membrane suspension (30 µg protein/well), 25 µl of [3H]-PGE2 (10 nM) in either absence or presence of 25 µl of either buffer or PGE2 (10 µM) for total and non-specific binding, respectively. Binding buffer contained 10 mM MES, 1 mM MgCl2 and 1 mM EDTA at pH 6.0. Plates were incubated at 25 °C for 60 minutes. After the incubation period, 200 µl of incubate were transferred to MultiScreen HTS, FB plates (Millipore), filtered and plates were washed 6 times with ice-cold 10 mM MES, 1 mM MgCl2 and 1 mM EDTA at pH 6.0. Filters were dried and counted in a MicroBeta scintillation counter (Perkin-Elmer) using EcoScint liquid scintillation cocktail.
Percentage inhibition was calculated relating compounds activity to the 0% inhibition of the wells incubated with 10 nM [3H]-PGE2 alone (total binding) and 100% inhibition of the wells incubated with 10 nM [3H]-PGE2 plus 10 µM PGE2 (non-specific binding). Competition binding curves were carried out by assaying 6 different concentrations with duplicated points. The inhibition constant (Ki) of each compound was calculated by the Cheng-Prusoff equation: Ki = IC50 /(1+[L]/KD) [formula] where IC50 is the concentration of compound that displaces the binding of radioligand by 50%, [L] is the free concentration of radioligand and KD is the dissociation constant of each radioligand. IC50 values were obtained by fitting the data with non-linear regression using XIFit software (IDBS).
As usually defined, the Ki is a measure of affinity in units of concentration, obtained from inhibition or displacement. In turn, `Cc1ccc2c(c1)[C@]1(C)CCC[C@@H]1[C@H](c1ccc(C(=O)O)cc1C)N2` [EXAMPLE 75, 4-((3aS, 4R, 9bR)-2,3,3a, 4,5,9b-hexahydro-8,9b-dimethyl-1H-cyclopenta[c]quinolin-4-yl)-3-methylbenzoic acid] gave a Ki of 100 to 500 nM. Next, `COc1ccc2c(c1)[C@@H]1CCC[C@@H]1[C@H](c1ccc(C(=O)O)cc1)N2` (racemic) [EXAMPLE 07, 4-((3aS,4R,9bR)-2,3,3a,4,5,9b-hexahydro-8-methoxy-1H-cyclopenta[c]quinolin-4-yl)benzoic acid]: below 100 nM; `Cc1ccc2c(c1)[C@@H]1CCC[C@@H]1[C@H](c1ccc(C(=O)O)c(C)c1)N2` [EXAMPLE 36, 4-((3aS, 4R, 9bR)-2,3,3a, 4,5,9b-hexahydro-8-methyl-1H-cyclopenta[c]quinolin-4-yl)-2-methylbenzoic acid]: above 500 nM.

`Cc1ccc2c(c1)[C@@H]1CCC[C@@H]1[C@H](c1ccc(C(=O)O)cc1Cl)N2` [EXAMPLE 47, 3-chloro-4-((3aS, 4R, 9bR)-2,3,3a, 4,5,9b-hexahydro-8-methyl-1H-cyclopenta[c]quinolin-4-yl)benzoic acid] showed a Ki of 100 to 500 nM. `CC(C)c1ccc2c(c1)[C@@H]1CCC[C@@H]1[C@H](c1ccc(C(=O)O)cc1)N2` [EXAMPLE 18, 4-((3aS,4R,9bR)-2,3,3a,4,5,9b-hexahydro-8-isopropyl-1H-cyclopenta[c]quinolin-4-yl)benzoic acid] returned a Ki of 100 to 500 nM. Under `O=C(O)c1ccc([C@@H]2Nc3ccc(Cl)cc3[C@@H]3CCC[C@@H]32)cc1` (single isomer, unassigned) [EXAMPLE 06a] stands below 100 nM; under `Cc1ccc2c(c1)[C@@H]1CCC[C@@H]1[C@H](c1ccc(C(=O)O)cc1)N2C` [EXAMPLE 30, 4-((3aS,4R,9bR)-2,3,3a,4,5,9b-hexahydro-5,8-dimethyl-1H-cyclopenta[c]quinolin-4-yl)benzoic acid], above 500 nM; under `Cc1ccc2c(c1)[C@@H]1CCC[C@@H]1[C@H](c1cc(C(=O)O)nn1C)N2` [EXAMPLE 62, 5-((3aS,4R,9bR)-2,3,3a,4,5,9b-hexahydro-8-methyl-1H-cyclopenta[c]quinolin-4-yl)-1-methyl-1H-pyrazole-3-carboxylic acid], above 500 nM. Under `COc1ccc2c(c1)[C@@H]1CCC[C@@H]1[C@@H](c1c(C)cc(C(=O)O)cc1C)N2` [EXAMPLE 57, 4-((3aS,4S,9bR)-2,3,3a,4,5,9b-hexahydro-8-methoxy-1H-cyclopenta[c]quinolin-4-yl)-3,5-dimethylbenzoic acid] stands below 100 nM. `Cc1cc2c(cc1Cl)N[C@@H](c1ccc(C(=O)O)cc1)[C@H]1CCC[C@@H]21` [EXAMPLE 29, 4-((3aS,4R,9bR)-7-chloro-2,3,3a,4,5,9b-hexahydro-8-methyl-1H-cyclopenta[c]quinolin-4-yl)benzoic acid] returned a Ki above 500 nM.

The compound `CCc1cc(C(=O)O)ccc1[C@H]1Nc2ccc(OC)cc2[C@@H]2CCC[C@H]12` [EXAMPLE 55, 3-ethyl-4-((3aS,4S,9bR)-2,3,3a,4,5,9b-hexahydro-8-methoxy-1H-cyclopenta[c]quinolin-4-yl)benzoic acid] gave a Ki of 100 to 500 nM.

The compound `COc1ccc2c(c1)[C@]1(C)CCC[C@@H]1[C@H](c1ccc(C(=O)O)cc1)N2` [EXAMPLE 69, 4-((3aS,4R,9bR)-2,3,3a,4,5,9b-hexahydro-8-methoxy-9b-methyl-1H-cyclopenta[c]quinolin-4-yl)benzoic acid] gave a Ki of 100 to 500 nM. Next, `Cc1ccc2c(c1)[C@@H]1CCC[C@@H]1[C@H](c1ccc(C(=O)O)cc1C)N2` (single isomer, unassigned) [EXAMPLE 37a]: below 100 nM.

Regarding `Cc1ccc2c(c1)[C@@H]1CCC[C@@H]1[C@@H](c1c(C)cc(C(=O)O)cc1C)N2` [EXAMPLE 56, 4-((3aS,4S,9bR)-2,3,3a,4,5,9b-hexahydro-8-methyl-1H cyclopenta[c]quinolin-4-yl)-3,5-dimethylbenzoic acid], the Ki is below 100 nM. Next, `Cc1ccc2c(c1)[C@@H]1CCC[C@@H]1[C@H](c1ccc(C(=O)O)cc1)N2` (racemic) [EXAMPLE 04, 4-((3aS,4R,9bR)-2,3,3a,4,5,9b-hexahydro-8-methyl-1H-cyclopenta[c]quinolin-4-yl)benzoic acid]: 100 to 500 nM. Next, `N#Cc1ccc2c(c1)[C@@H]1CCC[C@@H]1[C@H](c1ccc(C(=O)O)cc1)N2` [EXAMPLE 19, 4-((3aS,4R,9bR)-8-cyano-2,3,3a,4,5,9b-hexahydro-1H-cyclopenta[c]quinolin-4-yl)benzoic acid]: above 500 nM; `CCCc1ccc2c(c1)[C@@H]1CCC[C@@H]1[C@H](c1ccc(C(=O)O)cc1)N2` [EXAMPLE 12, 4-((3aS, 4R, 9bR)-2,3,3a, 4,5,9b-hexahydro-8-propyl-1H-cyclopenta[c]quinolin-4-yl)benzoic acid]: above 500 nM; `Cc1cc(C(=O)O)ccc1[C@@H]1Nc2ccc(C3CC3)cc2[C@@H]2CCC[C@@H]21` [EXAMPLE 43, 4-((3aS, 4R, 9bR)-8-cyclopropyl-2,3,3a, 4,5,9b-hexahydro-1H cyclopenta[c]quinolin-4-yl)-3-methylbenzoic acid]: 100 to 500 nM.

`O=C(O)c1ccc([C@@H]2Nc3ccc(Br)cc3[C@@H]3CCC[C@@H]32)cc1` [EXAMPLE 02, 4-((3aS,4R,9bR)-8-bromo-2,3,3a,4,5,9b-hexahydro-1H cyclopenta[c]quinolin-4-yl)benzoic acid] displayed a Ki of 100 to 500 nM.
